Where two headings read alike, the source gives them in different places.
How the values were obtained:
in vitro [1] = conditions: for HLM % remaining: % remaining at 60 min, 1 μM; for half-life at 1 μM: both, human
Protocol: Human Liver Microsomal metabolic stability: The microsomal metabolic stability assay utilized pooled human liver microsomes (mixed gender, BD Gentest), with supplemented cofactors NADPH and UDPGA (Solarbio S&T Co., LTD). Two separate experiments were performed as follows: • a) With cofactors (NADPH & UDPGA): 25 μL of 10 mM NADPH and 25 μL of 20 mM UDPGA were added to 197.5 μL of reaction solution (phosphate buffer (final concentration in assay 100 mM), MgCl2 (final concentration in assay (5 mM)), alamethacin (final concentration in assay 0.025 mg/mL) and microsomes (final concentration in assay 0.5 mg/mL). • b) Without cofactors (NADPH & UDPGA): 50 μL of H2O was added to 197.5 μL of reaction solution.
The mixture was pre-warmed at 37° C. for 10 minutes. The reaction was started with the addition of 2.5 μL of 100 μM control compound or test compound solutions. Diclofenac was used as positive control in this study. The final concentration of control compound and test compounds was 1 μM. Aliquots of 25 μL were taken from the reaction solution at 0.5, 5, 15, 30 and 60 minutes. The reaction was stopped by the addition of 5 volumes of cold acetonitrile containing internal standards. Samples were centrifuged at 3,220 g for 40 minutes. An aliquot of 100 μL of the supernatant was mixed with 100 μL of ultra-pure H2O and then used for LC-MS/MS analysis. Peak areas were determined from extracted ion chromatograms. Percent parent remaining was calculated from the area ratio of test compound. The slope value was determined by linear regression of the natural logarithm of percent parent remaining versus incubation time curve.
(§1) Peak areas were determined from extracted ion chromatograms to determine the in vitro half-life (t½) of parent compound by regression analysis of the percent parent disappearance vs. time curve. The in vitro half-life (in vitro t½) was determined from the slope value (in vitro t½=−0.693/k). All calculations were carried out using Microsoft Excel.

CYP2C19 = CYP2C19 (Homo sapiens (Human), UniProt P33261); test: biochemical; type: in vitro ADME
Protocol: (§2) CYP inhibition: Co-incubation of compounds with P450 enzyme-selective substrates was performed using pooled human liver microsomes (Cat. No. H0610, Xenotech), to determine their potential to cause drug-drug interactions. The assay was performed in duplicate. The formation of acetaminophen, 7′-hydoxycoumarin, hydrobupropion, N-desethylamodiaquine, 4′-hydroxydiclofenac, 4′-hydroxymephenytoin, 1′-hydroxybufuralol, 6″-hydroxychlorzoxazone were quantified as markers for CYP1A2, CYP2A6, […], CYP2C8, CYP2C9, CYP2C19, […], CYP2E1, respectively. CYP3A4 inhibition was measured using 2 substrates, measuring the formation of […] (3A4-T), and 1′-hydroxymidazolam (3A4-M). The incubation was carried out in 96 deep well plates each well containing: 179 μL of the master solution (0.2 mg/mL microsomes plus CYP substrate (see below for final substrate concentration and incubation time for the different CYP assays)) in 100 mM phosphate buffer and 1 μL of the compound working solution or vehicle. The final concentrations of the compounds in the assay was 30 μM when using a single dose or 0.1, 0.3, 1, 3, 10 and 30 μM for a dose response.
(§3) The incubation plate was placed into a water bath and pre-warmed at 37° C. for 5 minutes before the reactions were started by the addition of 20 μL of 10 mM NADPH solution and incubated at 37° C. for the time listed above. The reaction was stopped by addition of 1.5 volumes (300 μL) of cold ACN containing 3% formic acid and 200 nM tolbutamide, 200 nM aprozolam and 200 nM labalol. The plate was centrifuged at 3,220 g for 50 minutes and then 200 μL of the supernatant was transferred to the analysis plate for LC/MS/MS analysis. The respective metabolite formation from each probe substrate was compared with that observed for the solvent control incubations.

CYP2C9 = CYP2C9 (Homo sapiens (Human), UniProt P11712); test: biochemical; type: in vitro ADME
Protocol: as §2, §3

CYP2B6 = CYP2B6 (Homo sapiens (Human), UniProt P20813); test: biochemical; type: in vitro ADME
Protocol: as §2, §3

CYP2E1 = CYP2E1 (Homo sapiens (Human), UniProt P05181); test: biochemical; type: in vitro ADME
Protocol: as §2, §3

CYP2D6 = CYP2D6 (Homo sapiens (Human), UniProt P10635); test: biochemical; type: in vitro ADME
Protocol: as §2, §3

CYP3A4 = CYP3A4 (Homo sapiens (Human), UniProt P08684); test: biochemical; type: in vitro ADME
Protocol: as §2, §3

CYP2C8 = CYP2C8 (Homo sapiens (Human), UniProt P10632); test: biochemical; type: in vitro ADME
Protocol: as §2, §3

CYP2A6 = CYP2A6 (Homo sapiens (Human), UniProt P11509); test: biochemical; type: in vitro ADME
Protocol: as §2, §3

CYP1A2 = CYP1A2 (Homo sapiens (Human), UniProt P05177); test: CYP inhibition in pooled human liver microsomes; type: in vitro ADME
Protocol: as §2
The incubation plate was placed into a water bath and pre-warmed at 37° C. for 5 minutes before the reactions were started by the addition of 20 μL of 10 mM NADPH solution and incubated at 37° C. for the time listed above. […]

in vitro [2] = conditions: for hHEPs % remaining: 1 μM
Protocol: Human Hepatocyte metabolic stability: Human hepatocytes (X008000, BioIVT) were freshly thawed prior to the incubations with test compound. Hepatocytes were transferred to 50 mL conical tubes and centrifuged 10 min at 100 g. Thawing medium was removed and replaced by preheated (37° C.) incubation medium (William's E Medium supplemented with GlutaMAX), to yield a hepatocyte density ˜1.5×10^6 cells/mL. Cell viability was determined using AO/PI staining and hepatocytes were diluted using incubation medium to a working density of 0.5×10^6 viable cells/mL. 198 μL of hepatocytes were added into each well of a 96-well plate and placed in the incubator to allow the hepatocytes to warm for 10 minutes. 2 μL test compound or positive control was placed into respective wells of the 96-well plate (final concentration test compound 1 μM) to start the reaction. The plate was returned to the incubator and 25 μL aliquots of the well contents were removed at time points of 0, 15, 30, 60, 90 and 120 minutes. The aliquots were mixed with 6 volumes (150 μL) of acetonitrile containing internal standards (100 nM alprazolam, 200 nM caffeine, and 100 nM tolbutamide) to terminate the reaction. The plate was centrifuged for 20 minutes at 3,200 g. Aliquots of 150 μL of the supernatants were used for LC/MS/MS analysis. All incubations were performed in duplicate.
as §1

MOLM-13 cells = test: MOLM-13 cell viability (Assay B), Cell Titer-Glo; type: cell-based; conditions: Homo sapiens, read-out: IC50 MOLM13 inhibition activity
Summary of the method: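 Cells at 1,000 per well in RPMI/10% FBS were exposed to compound (10E-5 to 6E-12 M), with or without 100 μM uridine, for 72 h. Viability was read by CellTiter-Glo luminescence. Duplicates were run, and potency was taken from two independent experiments.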

recombinant human DHODH = recombinant human DHODH (Homo sapiens (Human), UniProt Q02127); test: DHODH enzyme assay (Assay A), DCIP absorbance; type: biochemical; conditions: bins ≥10 nM-<100 nM and <10 nM; read-out: IC50 DHODH inhibition activity
[3] = MOLM-13, 72 hours, bins ≥10 nM-<100 nM and <10 nM

recombinant human DHODH, sequence (Q02127 whole entry): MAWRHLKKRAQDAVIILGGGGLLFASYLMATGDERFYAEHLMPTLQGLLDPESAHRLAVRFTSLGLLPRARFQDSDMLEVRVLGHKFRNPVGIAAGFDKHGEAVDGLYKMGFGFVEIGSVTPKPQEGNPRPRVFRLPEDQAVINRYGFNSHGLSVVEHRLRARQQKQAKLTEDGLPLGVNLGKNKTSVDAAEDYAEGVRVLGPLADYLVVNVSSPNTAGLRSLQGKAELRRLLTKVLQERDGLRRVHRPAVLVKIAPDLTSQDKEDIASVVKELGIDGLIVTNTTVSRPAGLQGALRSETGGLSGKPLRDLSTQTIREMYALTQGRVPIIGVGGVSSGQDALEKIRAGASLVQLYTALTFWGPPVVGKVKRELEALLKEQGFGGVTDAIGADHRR
CYP3A4, sequence (P08684 whole entry): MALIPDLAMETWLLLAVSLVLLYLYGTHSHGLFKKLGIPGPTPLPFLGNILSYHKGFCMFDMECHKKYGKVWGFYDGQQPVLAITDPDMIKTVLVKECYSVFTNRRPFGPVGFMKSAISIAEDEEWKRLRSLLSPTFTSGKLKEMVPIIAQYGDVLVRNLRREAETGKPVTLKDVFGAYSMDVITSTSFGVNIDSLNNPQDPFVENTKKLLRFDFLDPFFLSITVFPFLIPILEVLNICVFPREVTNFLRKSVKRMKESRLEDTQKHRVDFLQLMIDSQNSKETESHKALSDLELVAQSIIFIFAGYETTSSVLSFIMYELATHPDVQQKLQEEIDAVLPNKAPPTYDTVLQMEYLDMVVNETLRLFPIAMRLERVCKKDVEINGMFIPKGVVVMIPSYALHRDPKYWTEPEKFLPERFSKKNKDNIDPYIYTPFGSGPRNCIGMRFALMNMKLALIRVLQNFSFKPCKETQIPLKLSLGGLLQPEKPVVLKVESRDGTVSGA
CYP2C8, sequence (P10632 whole entry): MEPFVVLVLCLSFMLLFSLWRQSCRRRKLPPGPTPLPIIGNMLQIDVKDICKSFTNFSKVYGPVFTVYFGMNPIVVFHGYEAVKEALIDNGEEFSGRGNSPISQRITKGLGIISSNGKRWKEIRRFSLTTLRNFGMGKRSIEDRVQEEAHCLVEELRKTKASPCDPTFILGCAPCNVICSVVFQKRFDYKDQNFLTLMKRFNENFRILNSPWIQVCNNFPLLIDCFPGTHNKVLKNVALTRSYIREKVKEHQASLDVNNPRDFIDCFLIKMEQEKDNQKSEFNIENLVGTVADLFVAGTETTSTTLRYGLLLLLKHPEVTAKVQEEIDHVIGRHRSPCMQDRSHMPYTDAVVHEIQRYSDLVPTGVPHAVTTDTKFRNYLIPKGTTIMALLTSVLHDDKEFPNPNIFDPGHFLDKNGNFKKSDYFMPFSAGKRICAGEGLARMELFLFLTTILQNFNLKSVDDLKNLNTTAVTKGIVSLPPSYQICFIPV
CYP1A2, sequence (P05177 whole entry): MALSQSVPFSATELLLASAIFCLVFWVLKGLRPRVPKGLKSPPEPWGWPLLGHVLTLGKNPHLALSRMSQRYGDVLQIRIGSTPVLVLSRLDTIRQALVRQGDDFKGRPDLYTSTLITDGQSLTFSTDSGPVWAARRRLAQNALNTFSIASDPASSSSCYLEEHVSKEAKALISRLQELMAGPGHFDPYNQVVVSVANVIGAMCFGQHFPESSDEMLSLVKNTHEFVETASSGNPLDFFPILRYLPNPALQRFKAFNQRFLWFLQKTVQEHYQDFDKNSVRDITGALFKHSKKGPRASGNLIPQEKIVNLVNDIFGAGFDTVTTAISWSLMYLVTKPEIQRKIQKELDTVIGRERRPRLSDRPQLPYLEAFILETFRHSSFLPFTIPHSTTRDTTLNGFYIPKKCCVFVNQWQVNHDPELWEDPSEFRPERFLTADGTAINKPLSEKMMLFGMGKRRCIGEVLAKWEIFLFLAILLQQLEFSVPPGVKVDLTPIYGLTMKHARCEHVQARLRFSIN
CYP2A6, sequence (P11509 whole entry): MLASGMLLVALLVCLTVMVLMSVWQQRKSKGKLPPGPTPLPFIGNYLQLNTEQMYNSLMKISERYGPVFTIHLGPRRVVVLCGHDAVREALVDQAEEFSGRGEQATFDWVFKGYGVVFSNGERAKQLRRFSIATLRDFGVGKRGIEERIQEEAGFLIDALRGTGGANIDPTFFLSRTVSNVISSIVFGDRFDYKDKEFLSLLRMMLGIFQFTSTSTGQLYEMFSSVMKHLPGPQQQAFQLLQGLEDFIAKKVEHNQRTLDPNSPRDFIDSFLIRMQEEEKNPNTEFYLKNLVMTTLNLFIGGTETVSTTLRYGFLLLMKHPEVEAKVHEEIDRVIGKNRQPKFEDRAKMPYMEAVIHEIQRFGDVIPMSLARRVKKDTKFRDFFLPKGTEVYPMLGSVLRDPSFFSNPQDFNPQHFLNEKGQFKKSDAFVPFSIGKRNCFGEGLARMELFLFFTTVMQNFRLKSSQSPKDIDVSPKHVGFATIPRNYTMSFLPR
CYP2D6, sequence (P10635 whole entry): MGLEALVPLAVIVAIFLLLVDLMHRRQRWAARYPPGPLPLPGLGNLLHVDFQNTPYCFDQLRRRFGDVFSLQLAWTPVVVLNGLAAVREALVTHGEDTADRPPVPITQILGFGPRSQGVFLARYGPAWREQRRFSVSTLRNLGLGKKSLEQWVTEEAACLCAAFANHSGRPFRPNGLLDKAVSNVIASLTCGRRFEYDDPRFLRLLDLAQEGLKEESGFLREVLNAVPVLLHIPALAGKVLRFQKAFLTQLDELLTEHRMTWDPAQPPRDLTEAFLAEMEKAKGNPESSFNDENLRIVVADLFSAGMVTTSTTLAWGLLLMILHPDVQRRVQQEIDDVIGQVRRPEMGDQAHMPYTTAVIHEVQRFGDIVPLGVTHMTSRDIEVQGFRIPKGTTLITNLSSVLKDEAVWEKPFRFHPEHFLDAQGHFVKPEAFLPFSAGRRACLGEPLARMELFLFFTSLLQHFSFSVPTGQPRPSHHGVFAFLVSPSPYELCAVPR
CYP2B6, sequence (P20813 whole entry): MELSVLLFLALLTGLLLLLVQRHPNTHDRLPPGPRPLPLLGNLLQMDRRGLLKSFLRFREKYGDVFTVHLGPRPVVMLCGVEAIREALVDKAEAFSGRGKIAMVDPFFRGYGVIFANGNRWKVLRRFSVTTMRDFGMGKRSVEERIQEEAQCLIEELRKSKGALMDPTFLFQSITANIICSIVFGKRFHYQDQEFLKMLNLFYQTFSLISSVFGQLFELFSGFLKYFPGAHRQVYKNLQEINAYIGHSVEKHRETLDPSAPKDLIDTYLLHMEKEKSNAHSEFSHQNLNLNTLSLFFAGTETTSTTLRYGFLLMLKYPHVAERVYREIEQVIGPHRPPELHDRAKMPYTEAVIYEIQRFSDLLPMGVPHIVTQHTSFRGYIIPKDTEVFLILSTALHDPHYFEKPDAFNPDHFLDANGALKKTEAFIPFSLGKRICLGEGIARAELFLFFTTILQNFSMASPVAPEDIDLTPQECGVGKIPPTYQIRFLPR
CYP2E1, sequence (P05181 whole entry): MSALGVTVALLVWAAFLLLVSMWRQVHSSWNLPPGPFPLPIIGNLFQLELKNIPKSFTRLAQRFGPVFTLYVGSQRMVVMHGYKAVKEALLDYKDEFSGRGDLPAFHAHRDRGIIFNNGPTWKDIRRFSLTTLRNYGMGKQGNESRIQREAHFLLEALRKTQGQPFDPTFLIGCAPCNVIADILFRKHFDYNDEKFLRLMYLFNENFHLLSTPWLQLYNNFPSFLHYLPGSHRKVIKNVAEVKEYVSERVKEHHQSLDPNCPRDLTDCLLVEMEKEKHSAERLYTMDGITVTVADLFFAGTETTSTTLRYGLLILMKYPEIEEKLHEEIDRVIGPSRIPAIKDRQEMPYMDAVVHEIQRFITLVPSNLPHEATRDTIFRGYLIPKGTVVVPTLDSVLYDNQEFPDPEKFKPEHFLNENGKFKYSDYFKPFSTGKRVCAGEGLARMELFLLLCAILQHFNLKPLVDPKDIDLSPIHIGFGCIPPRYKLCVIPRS
CYP2C9, sequence (P11712 whole entry): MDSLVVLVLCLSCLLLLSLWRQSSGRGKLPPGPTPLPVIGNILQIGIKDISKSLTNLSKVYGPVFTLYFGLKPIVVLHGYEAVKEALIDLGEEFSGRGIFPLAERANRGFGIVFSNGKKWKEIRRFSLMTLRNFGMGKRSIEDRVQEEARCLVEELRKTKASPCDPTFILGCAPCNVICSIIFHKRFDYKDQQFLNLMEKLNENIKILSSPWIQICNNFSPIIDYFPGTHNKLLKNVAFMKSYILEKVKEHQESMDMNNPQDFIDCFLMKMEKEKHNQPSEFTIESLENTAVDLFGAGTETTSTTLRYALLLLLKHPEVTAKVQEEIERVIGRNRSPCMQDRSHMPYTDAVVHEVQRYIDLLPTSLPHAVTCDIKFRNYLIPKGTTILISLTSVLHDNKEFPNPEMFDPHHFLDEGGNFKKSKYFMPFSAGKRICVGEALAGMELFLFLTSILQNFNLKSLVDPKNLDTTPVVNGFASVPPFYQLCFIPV
CYP2C19, sequence (P33261 whole entry): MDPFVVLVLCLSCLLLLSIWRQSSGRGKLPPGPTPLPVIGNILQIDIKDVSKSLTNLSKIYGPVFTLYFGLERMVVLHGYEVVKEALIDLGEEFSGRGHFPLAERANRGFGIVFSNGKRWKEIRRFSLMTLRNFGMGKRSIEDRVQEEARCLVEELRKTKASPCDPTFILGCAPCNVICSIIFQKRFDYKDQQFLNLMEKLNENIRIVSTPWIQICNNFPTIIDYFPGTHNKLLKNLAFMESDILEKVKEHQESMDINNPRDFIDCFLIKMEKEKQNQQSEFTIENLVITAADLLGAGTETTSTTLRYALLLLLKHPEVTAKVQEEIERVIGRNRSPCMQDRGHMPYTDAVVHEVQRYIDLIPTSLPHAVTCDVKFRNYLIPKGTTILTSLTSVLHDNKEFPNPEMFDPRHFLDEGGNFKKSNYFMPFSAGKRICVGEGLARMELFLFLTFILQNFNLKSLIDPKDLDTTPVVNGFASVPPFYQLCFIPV

| half-life at 1 μM (in vitro [1]; pooled liver microsomes) [h] | IC50 (MOLM-13 cells; [3]) [nM] | IC50 (recombinant human DHODH) [nM] | hHEPs % remaining (in vitro [2]; human, hepatocytes, 2 h) [%] | Compound | HLM % remaining (in vitro [1]) [%] | IC50 (CYP2C19) [nM] | IC50 (CYP2C9) [nM] | IC50 (CYP2B6) [nM] | IC50 (CYP2E1) [nM] | IC50 (CYP2D6) [nM] | IC50 (CYP3A4; IC50 CYP3A4-M, substrate Midozolam) [nM] | IC50 (CYP3A4; IC50 CYP3A4-T, substrate Testosterone) [nM] | IC50 (CYP2C8) [nM] | IC50 (CYP2A6) [nM] | IC50 (CYP1A2) [nM] | hHEPs % remaining (in vitro [2]; % remaining at 120 min) [%] | half-life at 1 μM (in vitro [2]; human, hepatocytes) [h] | half-life at 1 μM (in vitro [1]; microsomes) [h] | IC50 (MOLM-13 cells; MOLM-13, 72 h) [nM] |
| --- | --- | --- | --- | --- | --- | --- | --- | --- | --- | --- | --- | --- | --- | --- | --- | --- | --- | --- | --- |
| 4.75 | 10 to 100 | 10 to 100 | 87 | O=C(N[C@@H]1COCc2c1cnn2-c1ccccc1F)c1ncc2n1CCCC2 (single isomer, unassigned) [Ex-6] | 85 |  |  |  |  |  |  |  |  |  |  |  | 4.9 |  |  |
| 5.93 | < 10 | 10 to 100 |  | O=C(N[C@@H]1COCc2c1cnn2-c1ccccc1Cl)c1ncn2c1CCCC2 [Ex-51, (S)—N-(1-(2-chlorophenyl)-1,4,5,7-tetrahydropyrano[3,4-c]pyrazol-4-yl)-5,6,7,8-tetrahydroimidazo[1,5-a]pyridine-1-carboxamide] | 85 |  |  |  |  |  |  |  |  |  |  | 100 | > 10 |  |  |
| > 6.08 | < 10 | < 10 |  | O=C(N[C@@H]1COCc2c1cnn2-c1c(Cl)cccc1Cl)c1ncn2c1CCCC2 (single isomer, unassigned) [Ex-13] | 88 |  |  |  |  |  |  |  |  |  |  | 95 | > 10 |  |  |

| Compound | half-life at 1 μM (in vitro [1]; pooled liver microsomes) [h] | IC50 (MOLM-13 cells; [3]) [nM] | IC50 (recombinant human DHODH) [nM] | hHEPs % remaining (in vitro [2]; human, hepatocytes, 2 h) [%] | HLM % remaining (in vitro [1]) [%] | IC50 (CYP2C19) [nM] | IC50 (CYP2C9) [nM] | IC50 (CYP2B6) [nM] | IC50 (CYP2E1) [nM] | IC50 (CYP2D6) [nM] | IC50 (CYP3A4; IC50 CYP3A4-M, substrate Midozolam) [nM] | IC50 (CYP3A4; IC50 CYP3A4-T, substrate Testosterone) [nM] | IC50 (CYP2C8) [nM] | IC50 (CYP2A6) [nM] | IC50 (CYP1A2) [nM] | hHEPs % remaining (in vitro [2]; % remaining at 120 min) [%] | half-life at 1 μM (in vitro [2]; human, hepatocytes) [h] | half-life at 1 μM (in vitro [1]; microsomes) [h] | IC50 (MOLM-13 cells; MOLM-13, 72 h) [nM] |
| --- | --- | --- | --- | --- | --- | --- | --- | --- | --- | --- | --- | --- | --- | --- | --- | --- | --- | --- | --- |
| COc1ccc(F)c(-n2ncc3c2CCC[C@H]3NC(=O)c2ncn3c2CCCC3)c1Cl [Compound C, reference compound] | 1.7 |  |  |  | 69 | 18000 | 9200 | > 30000 | > 30000 | > 30000 | 16000 | > 30000 | > 30000 | > 30000 | > 30000 | 100 | > 10 |  |  |
| CCc1c(C(=O)N[C@@H]2COCc3c2cnn3-c2ccccc2F)ncn1C [Ex-41, (S)-5-ethyl-N-(1-(2-fluorophenyl)-1,4,5,7-tetrahydropyrano[3,4-c]pyrazol-4-yl)-1-methyl-1H-imidazole-4-carboxamide] | > 6.08 | 10 to 100 | 10 to 100 |  | 100 |  |  |  |  |  |  |  |  |  |  | 100 | > 10 |  |  |
| Cc1cccc(Cl)c1-n1ncc2c1COC[C@H]2NC(=O)c1ncn2c1CCCC2 [Ex-34, (S)—N-(1-(2-chloro-6-methylphenyl)-1,4,5,7-tetrahydropyrano[3,4-c]pyrazol-4-yl)-5,6,7,8-tetrahydroimidazo[1,5-a]pyridine-1-carboxamide] |  |  | < 10 |  | 100 |  |  |  |  |  |  |  |  |  |  | 100 | > 10 | 5.62 | < 10 |
